Measurements taken from patent US7148232B2, “Oxazolo, thiazolo and selenazolo [4,5-c]-quinolin-4-amines and analogs thereof” (3M Innovative Properties Company, priority 1998, dated 2006).
Values joined by “and” are separate entries in the source; they are usually repeats but may differ in a detail not shown here. Equal values may be shown once.

What was measured:
interferon (α) = test: Interferon (α) induction in human cells (in vitro human blood cell system, interferon by bioassay); assay type: cell-based; details: human PBM's, 48 hours
Protocol: An in vitro human blood cell system was used to assess interferon induction by compounds of the invention. Activity is based on the measurement of interferon secreted into culture media. Interferon is measured by bioassay.
Whole blood is collected by venipuncture into EDTA vacutainer tubes. Peripheral blood mononuclear cells (PBM's) are separated from whole blood by using either LeucoPREP™ Brand Cell Separation Tubes (available from Becton Dickinson) or Ficoll-Paque® solution (available from Pharmacia LKB Biotechnology Inc, Piscataway, N.J.). […] 200 μL portions of PBM suspension are added to 96 well (flat bottom) sterile tissue culture plates (Becton Dickinson Labware, Lincoln Park, N.J.).
The compounds are solubilized in ethanol, dimethyl sulfoxide or tissue culture water then diluted with tissue culture water, 0.01N sodium hydroxide or 0.01N hydrochloric acid (The choice of solvent will depend on the chemical characteristics of the compound being tested.). Ethanol or DMSO concentration should not exceed a final concentration of 1% for addition to the culture wells. Compounds are initially tested in a concentration range of from about 0.1 μg/mL to about 5 μg/mL. Compounds which show induction at a concentration of 0.5 μg/mL are then tested in a wider concentration range.
The solution of test compound is added in a volume (less than or equal to 50 μL) to the wells containing 200 μL of diluted whole blood or of PBM's in media. Solvent and/or media is added to control wells (wells with no test compound) and as needed to adjust the final volume of each well to 250 μL. The plates are covered with plastic lids, vortexed gently and then incubated for 48 hours at 37° C. with a 5% carbon dioxide atmosphere.
Following incubation, the plates are covered with parafilm and then centrifuged at 1000 rpm for 10 to 15 minutes at 4° C. in a Damon IEC Model CRU-5000 centrifuge. Media (about 200 μL) is removed from 4 to 8 wells and pooled into 2 mL sterile freezing vials. Samples are maintained at −70° C. until analysis.
Interferon is determined by bioassay using A549 human lung carcinoma cells challenged with encephalomyocarditis. The details of the bioassay method have been described by G. L. Brennan and L. H. Kronenberg in “Automated Bioassay of Interferons in Micro-test Plates”, Biotechniques, June/Jul. […] The incubated cells are infected with an inoculum of encephalomyocarditis virus. The infected cells are incubated for an additional period at 37° C. before quantifying for viral cytopathic effect. The viral cytopathic effect is quantified by staining followed by spectrophotometric absorbance measurements. Results are expressed as alpha reference units/mL based on the value obtained for NIH HU IF-L standard.
Compounds of the invention were tested for their ability to induce interferon in human cells using the test method described above.

Row | Structure (SMILES) | Interferon (α) Induction in Human Cells (interferon (α); Dose Concentration 0.01 μg/mL) | Interferon (α) Induction in Human Cells (interferon (α); Dose Concentration 0.05 μg/mL) | Interferon (α) Induction in Human Cells (interferon (α); Dose Concentration 0.10 μg/mL) | Interferon (α) Induction in Human Cells (interferon (α); Dose Concentration 0.50 μg/mL) | Interferon (α) Induction in Human Cells (interferon (α); Dose Concentration 1.0 μg/mL) | Interferon (α) Induction in Human Cells (interferon (α); Dose Concentration 5.0 μg/mL) | melting point | Interferon (α) Induction in Human Cells (interferon (α); Dose Concentration 10.0 μg/mL) | Interferon (α) Induction in Human Cells (interferon (α); Dose Concentration 25.0 μg/mL) | Interferon (α) Induction in Human Cells (interferon (α); Dose Concentration 50.0 μg/mL)
1 | Cc1nc2c(N)nc3ccccc3c2s1 [Example 2, 2-Methylthiazolo[4,5-c]quinolin-4-amine] | − | − | ± | + | + | + | 184 to 187 °C and 184 to 186 °C |  |  | 
2 | Cc1nc2c(N)nc3ccccc3c2s1.Cl [Example 4, 2-Methylthiazolo[4,5-c]quinolin-4-amine Hydrochloride] | − | − | − | + | + | + | 323 to 325 °C |  |  | 
3 | CCc1nc2c(N)nc3ccccc3c2s1 [Example 8, 2-Ethylthiazolo[4,5-c]quinolin-4-amine] | − | − | − | + | + | + | 170 to 172 °C and 169 to 171 °C |  |  | 
4 | CCCCCc1nc2c(N)nc3ccccc3c2s1 [Example 16, 2-Pentylthiazolo[4,5-c]quinolin-4-amine] | − | − | − | − | + | + | 119 to 121 °C |  |  | 
5 | Nc1nc2ccccc2c2sc(/C=C/c3ccccc3)nc12 [Example 22, 2-(2-Phenyl-1-ethenyl)thiazolo[4,5-c]quinolin-4-amine] | − | − | − | − | − | − | 239 to 241 °C | + | + | +
6 | CC(C)(Cc1nc2c(N)nc3ccccc3c2s1)OC(N)=O [Example 26, 2-(4-Aminothiazolo[4,5-c]quinolin-2-yl)-1,1-dimethylethyl Carbamate] | − | − | − | − | − | + | 222 to 223 °C | + | + | +
7 | CCOCc1nc2c(N)nc3ccccc3c2s1 [Example 28, 2-(Ethoxymethyl)thiazolo[4,5-c]quinoline-4-amine] | − | − | − | + | + | + | 149 to 151 °C |  |  | 
8 | COCc1nc2c(N)nc3ccccc3c2s1 [Example 30, 2-(Methoxymethyl)thiazolo[4,5-c]quinolin-4-amine] | − | − | − | − | + | + | 183 to 185 °C |  |  | 
9 | CC(C)Cc1nc2c(N)nc3ccccc3c2s1 [Example 32, 2-(2-Methylpropyl)thiazolo[4,5-c]quinolin-4-amine] | − | − | ± | + | + | + | 123 to 125 °C |  |  | 
10 | CCCc1nc2c(N)nc3ccc(C)cc3c2s1 [Example 36, 8-Methyl-2-propylthiazolo[4,5-c]quinolin-4-amine] | − | − | − | − | + | + | 147 to 149 °C |  |  | 
11 | Nc1nc2ccccc2c2sc(CO)nc12 [Example 37, (4-Aminothiazolo[4,5-c]quinolin-2-yl)-methanol] | − | − | − | − | − | − | 247 to 249 °C |  |  | 
12 | Cc1nc2c(N)nc3ccccc3c2o1 [Example 38, 2-Methyloxazolo[4,5-c]quinolin-4-amine] | − | − | − | + | + | + | 195 to 197 °C |  |  | 
13 | CCc1nc2c(N)nc3ccccc3c2o1 [Example 39, 2-Ethyloxazolo [4,5-c]quinolin-4-amine] | − | − | + | + | + | + | 175 to 178 °C |  |  | 
14 | CCCc1nc2c(N)nc3ccccc3c2o1 [Example 43, 2-Propyloxazolo[4,5-c]quinolin-4-amine] | − | + | + | + | + | + | 159 to 160 °C |  |  | 
15 | CCCc1nc2c(N)nc3ccc(Br)cc3c2s1 [Example 44, 8-Bromo-2-propylthiazolo[4,5-c]quinolin-4-amine] |  |  | − | − | − | + | 177 to 180 °C | + | + | +
16 | CCCc1nc2c(N)nc3cc(C)ccc3c2s1 [Example 45, 7-Methyl-2-propylthiazolo[4,5-c]quinolin-4-amine] | − | + | + | + | + | + | 186 to 187 °C |  |  | 
17 | CCCCc1nc2c(N)nc3cc(C)ccc3c2o1 [Example 46, 2-Butyl-7-methyloxazolo[4,5-c]quinolin-4-amine] | − | + | + | + | + | + | 187 to 188 °C |  |  | 
18 | CCCc1nc2c(N)nc3cc(C)ccc3c2o1 [Example 47, 7-Methyl-2-propyloxazolo[4,5-c]quinolin-4-amine] | − | + | + | + | + | + | 188 to 189 °C |  |  | 
19 | CCCc1nc2c[n+]([O-])c3cccnc3c2s1 [Example 59, 2-Propylthiazolo[4,5-c][1,5]naphthyridine-5N-oxide] |  |  |  |  |  |  | 139 to 142 °C |  |  | 
20 | CCCc1nc2c[n+]([O-])ccc2s1 [Example 61, 2-Propylpyrido[3,4-d][1,3]thiazole-5N-oxide] |  |  |  |  |  |  | 137 to 139 °C |  |  | 
